Laboratory results published in PMC1764434 (PLoS Clinical Trials, 2007).
Entries after “also recorded” stand apart in the source; their conditions may differ. Where two headings read alike, the source gives them in different places.

Key:
[1] = test system: P. cynomolgi; conditions: cited from earlier work
[2] = test system: QT interval; test: Effects on the QT interval (ECG and Holter recordings, Bazett correction); conditions: for QTc interval, Baseline: before dosing
Description: The effects of the study drugs on the QT interval were assessed by comparing QT intervals before dosing with QT intervals 4 h after dosing, and at the 2 wk follow-up. […] QT intervals were measured manually and electronically (Rozinn Electronics, Glendale, New York, United States). […] Correction of the QT interval for heart rate (i.e., QTc) was performed using Bazett's formula [27].

[3] = cited from earlier work
[4] = test system: CQ-resistant P. falciparum; conditions: CQ-resistant P. falciparum in the squirrel monkey; cited from earlier work
[5] = Urinary excretion and renal clearance (24-hour urine collections, days 1-3)
[6] = test system: animals; conditions: preclinical studies; cited from earlier work
[7] = test system: CQ-resistant P. falciparum; conditions: cited from earlier work
[8] = test system: healthy volunteers; test: Clinical adverse events (weekly diaries, blinded relatedness assessment), Phase I RCT; format: in vivo, human
Description: Adverse events (AEs) were recorded in weekly diaries provided to each volunteer. The relatedness of these AEs to the study drugs was assessed by two physicians (FM, CH) based on temporal association and biological plausibility using five categories: definitely not, unlikely, possibly, probably, and definitely related. The AEs reported in this manuscript include all AEs assessed as possibly, probably, or definitely related.
Quantitative data are presented as the mean ± standard deviation or as median and range, as appropriate. […] Due to a lack of normality, the nonparametric Mann-Whitney U test was used to compare independent samples; the Wilcoxon or Friedman test (whichever was appropriate) was used to compare repeated measures of the QTc interval. All statistical tests were two-sided with an α (significance level) of 0.05. Analyses were performed using the SPSS 11.0 statistical software (SPSS, Chicago, Illinois, United States). All analyses were based on allocation by intent-to-treat.

[9] = Blood pharmacokinetics after oral dosing (fluorescence HPLC, noncompartmental WinNonlin model); format: in vivo, human; conditions: for Cmax / Vd/F / MRT / Tmax / half-life / AUC: human, whole blood; for Cmax: read-out: Cmax; for MRT: read-out: MRT (converted); for AUC: po
Description: Study drugs were administered in the GCRC on an empty stomach between 8 and 9 AM the morning after admission (after fasting for ≥ 10 h).

[10] = test system: healthy volunteers; test: Post-dose clinical and laboratory follow-up (hematology, chemistry, organ toxicity); format: in vivo, human
[11] = 1,750 mg AQ-13, 1,500 mg CQ, mean ± SD
[12] = 600/700 mg AQ-13, 600 mg CQ, mean ± SD
[13] = days 1-3, 1,750 mg AQ-13 / 1,500 mg CQ
[14] = 1,500 mg CQ (n = 15) / 1,750 mg AQ-13 (n = 14)
[15] = 100, 300 mg doses, n = 16 per drug
[16] = 600/700 mg, AQ-13 n = 25, CQ n = 24
[17] = all doses combined, 63 volunteers per drug
[18] = 1750 mg, 1,750 mg oral over 3 d, median (range)
[19] = single oral 600 mg dose, median (range)
[20] = single oral 700 mg adjustment dose, median (range)
[21] = 2 wk follow-up, individual participant

CCN(CC)CCCNc1ccnc2cc(Cl)ccc12 [AQ-13]
activity in vivo in monkey model ([1]; P. cynomolgi in the rhesus monkey): active in vivo
activity in monkey models of human malaria compared with AQ-21 ([1]; both monkey models, ref Cogswell, et al., unpublished data): more active
mean QTc prolongation after the first dose (day 1) ([2]; 1,500 mg CQ (first 600 mg dose) / 1,750 mg AQ-13 (first 700 mg dose)): 4 ms
additional QTc increase after the second dose (day 2) ([2]; 1,500 mg CQ / 1,750 mg AQ-13): 6 ms
QTc interval, Baseline ([2]; 1,750 mg AQ-13 (n = 13), 1,500 mg CQ (n = 14), mean ± SD): 397 ± 16 ms
QTc interval, 2 wk follow-up [2, 11]: 402 ± 13 ms
QTc interval, 4–5 h post-dose (day 1) [2, 11]: 401 ± 14 ms
QTc interval, 4–5 h post-dose (day 2) [2, 11]: 407 ± 11 ms
QTc interval, 4–5 h post-dose (day 3) [2, 11]: 400 ± 11 ms
mean QTc prolongation, females ([2]; 1,750 mg AQ-13 / 1,500 mg CQ): 12 ms
mean increase in the QTc interval from baseline ([2]; 1,750 mg AQ-13 / 1,500 mg CQ, 4 h after the second dose on day 2): 10 ms
QTc interval, Baseline ([2]; 600/700 mg AQ-13 (n = 25), 600 mg CQ (n = 24), mean ± SD): 403 ± 17 ms
QTc interval, 2 wk follow-up [2, 12]: 405 ± 18 ms
QTc interval, 4–5 h post-dose (day 1) [2, 12]: 414 ± 17 ms
maximal prolongation of the QTc interval from baseline at the individual level ([2]; 600/700 mg dose): 42 ms
maximal prolongation of the QTc interval from baseline at the individual level ([2]; 1,500/1,750 mg dose): 35 ms
mean increase in the QTc interval from baseline, females ([2]; 4 h after 600 mg CQ or 600/700 mg AQ-13): 18 ms
mean QTc interval change from baseline, males ([2]; 4 h after 600 mg CQ or 600/700 mg AQ-13, not significant): 1 ms
mean increase in the QTc interval from baseline ([2]; 4 h after 600 mg CQ or 600 or 700 mg AQ-13): 11 ms
arrhythmias or other cardiac AEs ([2]; all doses): no arrhythmias or other cardiac AEs; also recorded: no cardiac AEs
clearance in preclinical studies in comparison with CQ [3]: cleared more rapidly than CQ
oral bioavailability in comparison with CQ ([3]; rats and monkeys, GLP preclinical studies by SRI International): less than that of CQ
activity in vivo in monkey model [4]: active in vivo
amount of unchanged drug recovered from 24 hour urine collections [5, 13]: 443 µmol
unchanged drug recovered from 24 hour urine collections, % of total oral dose [5, 13]: 8.4%
CL renal ([5]; human, urine and whole blood, po, 1750 mg): 55 mL/min
toxicity in animals in comparison with CQ [6]: no differences in toxicity
activity against resistant malaria parasites in vitro [7]: active against resistant malaria parasites
related adverse events: None ([8]; 10 mg dose, n = 8 per drug): 0
Abdominal pain, number (%) [8, 14]: 1 (7%)
Blurred vision, number (%) [8, 14]: 2 (14%)
Diarrhea, number (%) [8, 14]: 4 (29%)
Difficulty focusing/visual floating objects, number (%) [8, 14]: 2 (14%)
Lightheadedness/Dizziness, number (%) [8, 14]: 7 (50%)
Nausea, number (%) [8, 14]: 5 (36%)
Vomiting, number (%) [8, 14]: 2 (14%)
Weakness/fatigue, number (%) [8, 14]: 2 (14%)
Headache, number (%) ([8]; 1,500 mg CQ (n = 15) / 1,750 mg AQ-13 (n = 14) over 3 d): 5 (36%)
Headache, volunteers with related AE, number (%) [8, 15]: 2 (12%)
Lightheadedness/Dizziness, number (%) [8, 15]: 0
Nausea, number (%) [8, 15]: 1 (6%)
Abdominal pain, number (%) [8, 16]: 2 (8%)
Diarrhea, number (%) [8, 16]: 2 (8%)
Ear symptoms, number (%) [8, 16]: 0
Headache, number (%) [8, 16]: 10 (40%)
Lightheadedness/Dizziness, number (%) [8, 16]: 4 (16%)
Loss of appetite, number (%) [8, 16]: 3 (12%)
Nausea, number (%) [8, 16]: 2 (8%)
Vomiting, number (%) [8, 16]: 2 (8%)
drug-related GI symptoms, number of reports ([8]; all doses combined): 28 reports
drug-related lightheadedness/dizziness, volunteers/total [8, 17]: 11/63
volunteers reporting one or more GI symptoms/total [8, 17]: 14/63
blood level one hour after dosing as % of Cmax ([9]; 600 mg oral dose): 52%
Cl/F ([9]; 1,750 mg oral over 3 d, median (range)): 14.0 (6.8–20.3) l/h
median oral clearance (range of medians across dose levels) ([9]; 600 and 1,500/1,750 mg doses): 14.0 to 14.7 L/h
Cmax ([9]; 1750 mg, 1,750 mg oral over 3 d (700+700+350 mg), median (range)): 3000 nM
Vd/F [9, 18]: 6660 L
MRT [9, 18]: 13.4 days
Tmax ([9]; 1750 mg, 1,750 mg oral over 3 d, median (range), read-out: Tmax): 27.4 h
half-life ([9]; 1750 mg, 1,750 mg oral over 3 d, median (range), read-out: t½ (converted)): 12.9 days
Tmax ([9]; oral, 1,750 mg AQ-13 / 1,500 mg CQ, 27–28 h after the first dose, read-out: time of peak blood concentration after the second dose): 3 to 4 h
AUC ([9]; 600 mg, single oral 600 mg dose, median (range), read-out: AUCw1 (partial AUC for week 1)): 71.8 µM·h
AUC ([9]; 600 mg, single oral 600 mg dose, median (range), read-out: AUCτ (total area under the curve)): 141 µM·h
AUC ([9]; 700 mg, single oral 700 mg adjustment dose, median (range), read-out: AUCw1): 96.3 µM·h
AUC ([9]; 700 mg, single oral 700 mg adjustment dose, median (range), read-out: AUCτ): 342 µM·h
AUC ([9]; 1750 mg, 1,750 mg oral over 3 d, median (range), read-out: AUCw1): 226 µM·h
AUC ([9]; 1750 mg, 1,750 mg oral over 3 d, median (range), read-out: AUCτ): 493 µM·h
Vd/F [9, 19]: 6710 L
Vd/F [9, 20]: 6830 L
MRT [9, 20]: 23.5 days
Tmax ([9]; single oral 700 mg adjustment dose, median (range), read-out: Tmax): 4 h
half-life ([9]; single oral 700 mg adjustment dose, median (range), read-out: t½ (converted)): 17.9 days
Cmax ([9]; single oral 600 mg dose (CQ base equivalent), median (range)): 1400 nM
MRT [9, 19]: 10.5 days
Tmax ([9]; single oral 600 mg dose, median (range), read-out: Tmax): 4 h
half-life ([9]; single oral 600 mg dose, median (range), read-out: t½ (terminal elimination half-life) (converted)): 14.3 days
Cmax [9, 20]: 1600 nM
linearity of pharmacokinetics ([9]; oral doses in healthy volunteers): linear pharmacokinetics
Cl/F (apparent oral clearance) [9, 19]: 14.7 (7.0–31.1) l/h
Cl/F [9, 20]: 11.8 (8.5–19.1) l/h
ALT in one participant with abnormal liver function tests [10, 21]: 149
AST in one participant with abnormal liver function tests [10, 21]: 135 U/l
alkaline phosphatase in one participant with abnormal liver function tests [10, 21]: 146
bilirubin in one participant with abnormal liver function test [10, 21]: 1.5 mg/dL
volunteers with mildly abnormal liver function tests ([10]; 2 wk follow-up, AQ-13 100 and 300 mg doses, CQ 1,500 mg dose): two
hematologic or chemical toxicities on repeat laboratory testing ([10]; 4 d after drug administration): no hematologic or chemical toxicities
organ toxicity ([10]; any dose tested, inpatient exams, 2 and 4 wk follow-up): No hematologic, hepatic, renal, or other organ toxicity was observed; also recorded: no clinical evidence for end-organ toxicity
